Results on 6 compounds are retold here after patent publication US5866587A, “Metalloprotease inhibitors” (Adir Et Compagnie, priority 1996, dated 1999).

Assay [1] deals with guinea pig cartilage. The experiment in a line: Degradation of the cartilaginous matrix induced by IL-1β: degradation of collagen (OH-proline release). It is filed as cell-based. Conditions: IL-1β (10 mg/ml) and plasminogen (30 μg/ml), 3 days; for inhibition at 1 µM: Cavia porcellus, 72 h, 10^-6 M, read-out: collagen % protection at 10^-6 M. How it is done:
(§1) The compounds of the invention were studied in a model of destruction of the cartilaginous matrix induced by IL-1β. The trials carried out on guinea pig cartilage relate:
on the one hand, to the degradation of collagen: colorimetric assay according to the Grant technique (Grant R. A. Estimation of OH-proline by the autoanalyser, J. Clin. Path. 1964, 17, 685) of the OH-proline fraction released by the tissue brought into contact, for 3 days, with IL-1β ([…]) and of plasminogen (30 μg/ml),
(§2) The compounds of the invention were studied by addition to the culture medium for the 3 days of assay. […] By way of example, the activities exerted by some compounds of the invention are the following: […]

In assay [2] the test system is guinea pig cartilage. The assay is described as follows: Degradation of the cartilaginous matrix induced by IL-1β: degradation of proteoglycans (35SO4 glycosaminoglycan release). To be noted: IL-1β (10 mg/ml), 3 days; for inhibition at 30 µM: Cavia porcellus, 72 h, 3 × 10^-5 M, cartilage labeled with 35SO4, read-out: proteoglycans % protection at 3 × 10^-5M. It is filed as cell-based. How it is done:
as §1
on the other hand, to the degradation of proteoglycans: radioisotopic measurement of the glycosaminoglycan fraction released by the tissue during the 3 days of contact with IL-1β (10 mg/mil), the cartilage having been labeled beforehand with ^35 SO4.
as §2

The next assay deals with ovarian cancers. Conditions: Becket et al., DDT 1996; cited from earlier work.
The subject of assay [3] is sections of thoracic aorta from Fischer 344 rats. The experiment in a line: Angiogenesis in vitro, formation of pseudovessels in collagen gel. It is filed as cell-based. Conditions: Rattus norvegicus, 120 h; at 100 nM, five days of culture in serum-free medium; read-out: inhibition of formation of pseudovessels (vascular density). The text has this:
Sections of thoracic aorta from 8- to 12-week old male Fischer 344 rats are immersed in a collagen type I gel according to the Nicosia and Ottinetti method (1990). After five days of culture in serum-free medium, the preparations are examined under a microscope and the formation of pseudovessels is quantified in terms of vascular density after digitization and image analysis.

Assay [4] concerns murine Lewis carcinoma cells (LLC). The assay is described as follows: Invasion in vitro, Transwell filter coated with artificial extracellular matrix. Conditions: Mus musculus, 24 h, medium with serum, read-out: inhibition of cellular invasion. It is filed as cell-based. As for the experimental part: The tests of invasion are carried out according to the following procedure: murine Lewis carcinoma cells (LLC) are deposited on the top face of a Transwell filter coated with an artificial extracellular matrix and are cultured in medium with serum for 24 h. The cells are then exposed to the vital stain 3-[4,5-dimethylthiazol-2-yl]-2,5-diphenyltetrazolium bromide and they are removed from the top face of the filter. The formazan crystals present under the filter are solubilized in a concentrated mixture of sodium dodecyl sulfate and dimethylformamide. The absorption at 540 nm of the corresponding colored mixture is then used to indirectly quantify cellular invasion.

Structures can show the parent of a compound that is named as a salt.

As for `COc1ccc(S(=O)(=O)N2Cc3nc[nH]c3C[C@@H]2C(=O)NO)cc1` [Example 23, (6R)-5-(4-Methoxybenzenesulfonyl)-4,5,6,7-tetrahydro-imidazo[4,5-c]pyridine-6-(N-hydroxy)carboxamide Hydrochloride], in the assay on guinea pig cartilage [1], the inhibition at 1 µM stood at 88%. The inhibition at 30 µM in the assay with guinea pig cartilage [2] is 24%.
Take `CCCCCCCC1c2[nH]c3ccccc3c2C[C@H](C(=O)NO)N1S(=O)(=O)c1ccc(OC)cc1` (single isomer, unassigned) [Example 7]: in the assay with guinea pig cartilage [1] (1 µM), the “collagen % protection at 10^-6 M” value is on record as 47%. For the same compound, the “proteoglycans % protection at 3 × 10^-5M” value in the assay with guinea pig cartilage [2] (cartilage labeled with 35SO4, 30 µM) amounted to 100%.
Consider `CNC(=O)[C@H](Cc1ccccc1)NC(=O)[C@H](CC(C)C)[C@H](CSc1cccs1)C(=O)NO` [BB94], for which the “antitumor activity in clinical trials” value in the assay with ovarian cancers is given as “proved active on ovarian cancers”.
As for `COc1ccc(S(=O)(=O)N2Cc3occc3C[C@@H]2C(=O)NO)cc1` [Example 28, (5R)-6-(4-Methoxybenzenesulfonyl)-4,5,6,7-tetrahydrofuro[2,3-c]pyridine-5-(N-hydroxy)carboxamide], the inhibition at 1 µM in the assay on guinea pig cartilage [1] stood at 79%; in assay [4], 44%. Besides, in the assay with guinea pig cartilage [2], the inhibition at 30 µM is 34%. Moreover, the inhibition at 0.1 µM in assay [3] was found to be 85%.
Consider `COc1ccc(S(=O)(=O)N2Cc3sccc3C[C@@H]2C(=O)NO)cc1` [Example 15, (5R)-6-(4-Methoxybenzenesulfonyl)-4,5,6,7-tetrahydro-thieno[2,3-c]pyridine-5-(N-hydroxy)carboxamide], for which the inhibition at 1 µM in the assay with guinea pig cartilage [1] worked out at 98%. The inhibition at 30 µM in the assay with guinea pig cartilage [2] came to 60%.
Take `COc1ccc(S(=O)(=O)N2Cc3ccsc3C[C@@H]2C(=O)NO)cc1` [Example 1, (6R)-5-(4-Methoxybenzenesulfonyl)-4,5,6,7-tetrahydrothieno[3,2-c]pyridine-6-(N-hydroxy)carboxamide]: the inhibition at 1 µM in the assay on guinea pig cartilage [1] worked out at 98%; in assay [4], 45%. Besides, the inhibition at 30 µM in the assay on guinea pig cartilage [2] is 45%. Moreover, the inhibition at 0.1 µM in assay [3] came out at 87%.
